The target of assay [1] is Voltage-dependent L-type calcium channel subunit alpha-1C (Rattus norvegicus, UniProt P22002). Nature of the assay: Inhibition of Cav1.2 calcium current measured using whole cell patch clamp in rat ventricular myocytess. The format is functional, cell-based, Heart, Ventricular myocyte. On the set-up: ca sol conc 2 mM, temp 22-24 C. For orientation: Patch clamp records ionic current or voltage across a cell membrane.

Assay [2] concerns the target T1, Voltage-dependent L-type calcium channel subunit alpha-1C (Cavia porcellus, UniProt O35505). Nature of the assay: (§1) Inhibition of Cav1.2 calcium current measured using whole cell patch clamp in guinea pig ventricular myocytes. The format is functional, cell-based, Heart, Ventricular myocyte. On the set-up: ca sol conc 1.8 mM, temp 37 C.
Assay [3] concerns the target T1, Voltage-dependent L-type calcium channel subunit alpha-1C. The assay can be described thus: Inhibition of Cav1.2 calcium current measured using whole cell patch clamp in guinea pig tracheal smooth muscle cells. The format is functional, tissue-based, Trachea. On the set-up: ca sol conc 5 - Barium mM, temp 35 C.
For assay [4], the target named is Voltage-dependent L-type calcium channel subunit alpha-1C (Oryctolagus cuniculus, UniProt P15381). Nature of the assay: Inhibition of Cav1.2 calcium current measured using whole cell patch clamp in rabbit ventricular myocytes. On the set-up: ca sol conc 1.8 mM, temp 34 C. The format is functional, cell-based, Heart, Ventricular myocyte.
In assay [5] the target is T1, Voltage-dependent L-type calcium channel subunit alpha-1C. Nature of the assay: Inhibition of Cav1.2 calcium current measured using whole Cell patch clamp in guinea pig ventricular myocytes. The format is functional, cell-based, Heart, Ventricular myocyte. On the set-up: ca sol conc 1.8 mM.
Assay [6] has the same target. The description is as §1. The format is functional, cell-based, Heart, Ventricular myocyte. Details: ca sol conc 1.2 mM, temp 24 pm 1 C.
For assay [7] the target is unchanged. The assay is described as §1. Format: functional, cell-based, Heart, Ventricular myocyte. Details: ca sol conc 2 mM, temp 21-23 C.
The target is the same in assay [8]. The assay can be described thus: Inhibition of Cav1.2 calcium current measured using whole cell patch clamp in guinea pig atrial myocytes. The format is functional, cell-based, Heart, Cardiac Muscle Cell. On the set-up: ca sol conc 2 mM, temp 22 pm 1 C.
Assay [9] shares this target. Described as §1. The format is functional, cell-based, Heart, Ventricular myocyte. Details: ca sol conc 1.8 mM, temp 35 pm 0.5 C.

What is called IC50 is the point on the concentration scale where inhibition reaches its midpoint.

T1 sequence (O35505 whole entry): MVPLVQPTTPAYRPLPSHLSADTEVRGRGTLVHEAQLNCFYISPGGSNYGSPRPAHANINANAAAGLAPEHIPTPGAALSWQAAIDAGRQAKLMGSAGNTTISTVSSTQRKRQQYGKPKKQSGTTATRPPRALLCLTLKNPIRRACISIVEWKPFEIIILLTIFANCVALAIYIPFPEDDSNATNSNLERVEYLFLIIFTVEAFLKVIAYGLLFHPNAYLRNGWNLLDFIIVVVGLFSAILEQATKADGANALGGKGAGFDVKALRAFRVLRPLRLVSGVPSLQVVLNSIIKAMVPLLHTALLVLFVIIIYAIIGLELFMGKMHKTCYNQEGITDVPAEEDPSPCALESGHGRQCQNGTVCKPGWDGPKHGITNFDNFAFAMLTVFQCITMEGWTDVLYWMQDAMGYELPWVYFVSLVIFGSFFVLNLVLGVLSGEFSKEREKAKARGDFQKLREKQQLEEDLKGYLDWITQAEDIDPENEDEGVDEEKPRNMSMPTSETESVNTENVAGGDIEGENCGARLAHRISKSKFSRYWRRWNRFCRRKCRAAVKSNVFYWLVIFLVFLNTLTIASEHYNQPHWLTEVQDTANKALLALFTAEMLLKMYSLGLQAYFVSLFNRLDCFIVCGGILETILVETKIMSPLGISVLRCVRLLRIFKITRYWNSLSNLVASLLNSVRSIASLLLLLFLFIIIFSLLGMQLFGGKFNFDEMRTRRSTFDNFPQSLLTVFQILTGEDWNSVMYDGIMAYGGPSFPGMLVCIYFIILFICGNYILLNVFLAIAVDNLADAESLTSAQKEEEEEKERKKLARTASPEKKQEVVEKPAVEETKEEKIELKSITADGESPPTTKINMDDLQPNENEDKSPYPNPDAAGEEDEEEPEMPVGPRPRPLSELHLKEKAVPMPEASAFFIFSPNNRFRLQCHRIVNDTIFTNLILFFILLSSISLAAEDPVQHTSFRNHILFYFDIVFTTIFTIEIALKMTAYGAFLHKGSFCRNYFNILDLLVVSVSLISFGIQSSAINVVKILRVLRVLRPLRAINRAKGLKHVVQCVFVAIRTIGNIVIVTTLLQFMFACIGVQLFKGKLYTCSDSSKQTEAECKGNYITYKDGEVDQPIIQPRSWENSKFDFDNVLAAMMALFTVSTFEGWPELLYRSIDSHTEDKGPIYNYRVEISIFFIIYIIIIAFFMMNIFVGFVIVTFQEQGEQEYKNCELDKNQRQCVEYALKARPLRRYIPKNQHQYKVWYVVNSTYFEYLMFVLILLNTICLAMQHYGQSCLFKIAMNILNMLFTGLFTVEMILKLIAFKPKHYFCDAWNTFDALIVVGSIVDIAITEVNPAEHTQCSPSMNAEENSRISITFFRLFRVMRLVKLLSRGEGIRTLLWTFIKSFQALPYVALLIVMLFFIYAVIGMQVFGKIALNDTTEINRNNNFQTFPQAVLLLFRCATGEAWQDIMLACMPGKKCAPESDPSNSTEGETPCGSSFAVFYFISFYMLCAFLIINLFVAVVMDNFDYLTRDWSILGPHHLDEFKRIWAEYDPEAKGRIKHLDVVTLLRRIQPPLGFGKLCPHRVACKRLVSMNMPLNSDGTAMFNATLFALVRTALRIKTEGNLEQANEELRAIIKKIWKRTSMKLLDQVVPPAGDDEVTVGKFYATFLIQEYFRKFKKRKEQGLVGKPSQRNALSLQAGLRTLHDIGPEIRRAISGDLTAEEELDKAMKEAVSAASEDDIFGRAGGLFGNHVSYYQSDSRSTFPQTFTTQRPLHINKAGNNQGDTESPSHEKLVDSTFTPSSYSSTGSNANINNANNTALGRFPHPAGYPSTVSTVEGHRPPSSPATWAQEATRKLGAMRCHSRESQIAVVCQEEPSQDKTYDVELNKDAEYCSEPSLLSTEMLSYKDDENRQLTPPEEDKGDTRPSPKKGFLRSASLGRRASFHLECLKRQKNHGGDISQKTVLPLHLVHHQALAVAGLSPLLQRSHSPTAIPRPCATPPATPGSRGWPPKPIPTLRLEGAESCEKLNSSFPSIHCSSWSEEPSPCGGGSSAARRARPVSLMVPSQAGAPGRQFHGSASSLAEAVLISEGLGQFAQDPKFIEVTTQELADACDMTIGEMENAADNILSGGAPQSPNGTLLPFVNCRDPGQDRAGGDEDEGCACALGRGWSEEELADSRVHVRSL
Chain of Voltage-dependent L-type calcium channel subunit alpha-1C (Rattus norvegicus, UniProt P22002) (P22002 whole entry): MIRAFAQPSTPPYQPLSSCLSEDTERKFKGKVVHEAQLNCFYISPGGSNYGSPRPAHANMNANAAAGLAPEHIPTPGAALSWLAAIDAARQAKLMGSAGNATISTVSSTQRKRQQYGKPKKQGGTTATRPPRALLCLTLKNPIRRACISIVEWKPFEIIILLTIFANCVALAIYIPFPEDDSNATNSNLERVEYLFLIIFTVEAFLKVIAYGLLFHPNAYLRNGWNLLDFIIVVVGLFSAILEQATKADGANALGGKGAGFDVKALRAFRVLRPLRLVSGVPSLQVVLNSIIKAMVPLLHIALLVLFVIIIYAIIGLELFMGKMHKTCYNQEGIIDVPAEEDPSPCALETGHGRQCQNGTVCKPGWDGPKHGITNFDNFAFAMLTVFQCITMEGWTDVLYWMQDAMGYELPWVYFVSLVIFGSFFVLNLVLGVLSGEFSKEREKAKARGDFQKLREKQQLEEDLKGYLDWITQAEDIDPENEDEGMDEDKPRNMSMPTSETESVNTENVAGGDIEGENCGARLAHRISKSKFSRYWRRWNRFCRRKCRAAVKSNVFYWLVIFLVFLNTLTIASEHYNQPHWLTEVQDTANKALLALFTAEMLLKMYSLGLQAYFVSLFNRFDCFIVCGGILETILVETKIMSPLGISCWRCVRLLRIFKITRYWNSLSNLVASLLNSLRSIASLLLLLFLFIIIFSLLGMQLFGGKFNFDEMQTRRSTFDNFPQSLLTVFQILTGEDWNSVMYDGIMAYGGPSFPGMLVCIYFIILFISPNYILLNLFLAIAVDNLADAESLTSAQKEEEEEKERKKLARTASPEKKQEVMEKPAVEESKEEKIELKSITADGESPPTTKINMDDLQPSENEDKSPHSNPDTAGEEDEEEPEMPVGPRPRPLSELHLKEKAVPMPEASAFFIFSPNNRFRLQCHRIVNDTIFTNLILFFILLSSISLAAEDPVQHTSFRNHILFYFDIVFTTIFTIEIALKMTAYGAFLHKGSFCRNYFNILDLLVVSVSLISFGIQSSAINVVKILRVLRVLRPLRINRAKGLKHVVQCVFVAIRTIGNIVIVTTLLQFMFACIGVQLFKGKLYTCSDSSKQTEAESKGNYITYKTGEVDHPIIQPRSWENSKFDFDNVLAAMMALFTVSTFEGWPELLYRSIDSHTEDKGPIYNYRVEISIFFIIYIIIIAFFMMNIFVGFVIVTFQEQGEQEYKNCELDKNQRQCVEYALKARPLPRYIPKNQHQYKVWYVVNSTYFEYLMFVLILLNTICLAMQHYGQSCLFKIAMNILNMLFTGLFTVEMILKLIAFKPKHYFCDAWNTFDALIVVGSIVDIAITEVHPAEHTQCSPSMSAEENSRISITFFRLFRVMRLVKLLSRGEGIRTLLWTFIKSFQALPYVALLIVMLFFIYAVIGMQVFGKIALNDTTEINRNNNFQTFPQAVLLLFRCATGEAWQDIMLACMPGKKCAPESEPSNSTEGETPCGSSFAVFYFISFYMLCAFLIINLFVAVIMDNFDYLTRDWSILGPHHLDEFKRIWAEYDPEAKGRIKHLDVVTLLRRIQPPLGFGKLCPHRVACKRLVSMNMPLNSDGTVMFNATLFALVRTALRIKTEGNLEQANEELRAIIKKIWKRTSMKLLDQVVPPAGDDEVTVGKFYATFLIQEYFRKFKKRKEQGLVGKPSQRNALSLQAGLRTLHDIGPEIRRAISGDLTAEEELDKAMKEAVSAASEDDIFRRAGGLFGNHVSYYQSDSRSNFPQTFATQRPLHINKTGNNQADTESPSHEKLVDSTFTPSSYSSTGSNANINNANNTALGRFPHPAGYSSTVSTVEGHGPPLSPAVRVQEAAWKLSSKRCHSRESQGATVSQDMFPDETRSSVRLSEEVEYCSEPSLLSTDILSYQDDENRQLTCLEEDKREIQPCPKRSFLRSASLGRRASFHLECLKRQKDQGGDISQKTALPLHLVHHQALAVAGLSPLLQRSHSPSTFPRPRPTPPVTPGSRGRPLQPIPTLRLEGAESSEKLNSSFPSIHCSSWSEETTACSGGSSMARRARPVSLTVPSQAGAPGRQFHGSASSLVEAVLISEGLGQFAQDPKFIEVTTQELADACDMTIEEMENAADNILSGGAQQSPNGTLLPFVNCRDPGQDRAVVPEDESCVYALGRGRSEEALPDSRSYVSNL

On to `CCCCC/C=C\C/C=C\C/C=C/C/C=C\CCCC(=O)NCCO`, for which, in [1], the concentration for half-maximal inhibition (IC50) is 100 nM.
For `COC(=O)C1=CCCN(C)C1` [ARECOLINE], in assay [2], the IC50 turned out to be 33.7 µM.
Consider `CN1CCCC(n2nc(Cc3ccc(Cl)cc3)c3ccccc3c2=O)CC1` (centres undefined) [AZELASTINE], for which the IC50 in [3] came out at 8 µM.
As to `COc1ccccc1OCCNCC(O)COc1cccc2[nH]c3ccccc3c12` (centres undefined) [CARVEDILOL], the half-maximal inhibitory concentration (IC50) in [4] came out at 3.59 µM.
Turning to `Cc1ccc(-c2cc(C(F)(F)F)nn2-c2ccc(S(N)(=O)=O)cc2)cc1` [CELECOXIB], the half-maximal inhibitory concentration (IC50) in assay [5] amounted to 10.6 µM.
Turning to `CCN(CC)CCCC(C)Nc1c2ccc(Cl)cc2nc2ccc(OC)cc12` (centres undefined) [QUINACRINE], the half-inhibitory concentration (IC50) in [6] turned out to be 5.6 µM.
Take `CCCN1CCCC[C@H]1C(=O)Nc1c(C)cccc1C` [ROPIVACAINE]: the half-maximal inhibitory concentration (IC50) in [7] is 430 µM.
Consider `CCCC(C)C1(CC)C(=O)NC(=S)NC1=O` (centres undefined) [THIOPENTAL], for which, in assay [8], the IC50 turned out to be 280 nM.
Take `Cc1c(C)c2c(c(C)c1O)CCC(C)(COc1ccc(CC3SC(=O)NC3=O)cc1)O2` (centres undefined) [TROGLITAZONE]: in assay [9], the half-inhibitory concentration (IC50) was 800 nM.

Values taken from ChEMBL document CHEMBL3638030, “IC50 data for the L-type calcium channel extracted from a set of literature articles”.
